Results: the supplement of paper PMC10307832

Legend:
Test in all cases: relative viability (nuclei count vs DMSO), 5 days (fraction); higher = more cells survive
Dovitinib + Decitabine = compound: CN1CCN(c2ccc3nc(-c4c(N)c5c(F)cccc5[nH]c4=O)[nH]c3c2)CC1 [Dovitinib] + Nc1ncn([C@H]2C[C@H](O)[C@@H](CO)O2)c(=O)n1 [Decitabine] (partner 2 µM)
How it was run: (§1)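 Dosing by pin tool came one day after lung cancer cell lines were seeded in 1536-well plates, using either one drug or a fixed anchor-drug dose plus five library-drug doses (not always all listed) in √10 steps. After 5 days, nuclei were counted on 4× images. Relative viability is treated-well nuclei count divided by vehicle-well nuclei count, and values are medians of duplicate plates.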

Dovitinib + Lapatinib = compound: CN1CCN(c2ccc3nc(-c4c(N)c5c(F)cccc5[nH]c4=O)[nH]c3c2)CC1 [Dovitinib] + CS(=O)(=O)CCNCc1ccc(-c2ccc3ncnc(Nc4ccc(OCc5cccc(F)c5)c(Cl)c4)c3c2)o1 [Lapatinib] (partner 2 µM)
How it was run: as §1

Dovitinib + Tozasertib = compound: CN1CCN(c2ccc3nc(-c4c(N)c5c(F)cccc5[nH]c4=O)[nH]c3c2)CC1 [Dovitinib] + Cc1cc(Nc2cc(N3CCN(C)CC3)nc(Sc3ccc(NC(=O)C4CC4)cc3)n2)n[nH]1 [Tozasertib] (partner 0.1 µM)
How it was run: as §1

Dovitinib + Crizotinib = compound: CN1CCN(c2ccc3nc(-c4c(N)c5c(F)cccc5[nH]c4=O)[nH]c3c2)CC1 [Dovitinib] + C[C@@H](Oc1cc(-c2cnn(C3CCNCC3)c2)cnc1N)c1c(Cl)ccc(F)c1Cl [Crizotinib] (partner 1 µM)
How it was run: as §1

Cell Line	relative viability (Dovitinib + Decitabine; first compound 0.02 µM)	relative viability (Dovitinib + Decitabine; first compound 0.06325 µM)	relative viability (Dovitinib + Decitabine; first compound 0.2 µM)	relative viability (Dovitinib + Decitabine; first compound 0.6325 µM)	relative viability (Dovitinib + Decitabine; first compound 2 µM)	relative viability (Dovitinib + Lapatinib; first compound 0.02 µM)	relative viability (Dovitinib + Lapatinib; first compound 0.06325 µM)	relative viability (Dovitinib + Lapatinib; first compound 0.2 µM)	relative viability (Dovitinib + Lapatinib; first compound 0.6325 µM)	relative viability (Dovitinib + Lapatinib; first compound 2 µM)	relative viability (Dovitinib + Tozasertib; first compound 0.02 µM)	relative viability (Dovitinib + Tozasertib; first compound 0.06325 µM)	relative viability (Dovitinib + Tozasertib; first compound 0.2 µM)	relative viability (Dovitinib + Tozasertib; first compound 0.6325 µM)	relative viability (Dovitinib + Tozasertib; first compound 2 µM)	relative viability (Dovitinib + Crizotinib; first compound 0.02 µM)	relative viability (Dovitinib + Crizotinib; first compound 0.06325 µM)	relative viability (Dovitinib + Crizotinib; first compound 0.2 µM)	relative viability (Dovitinib + Crizotinib; first compound 0.6325 µM)	relative viability (Dovitinib + Crizotinib; first compound 2 µM)
LXF-289	0.438	0.402	0.391	0.372	0.359	0.813	0.904	0.88	0.867	0.873	0.214	0.228	0.195	0.189	0.171	0.736	0.816	0.789	0.794	0.838
NCI-H23	0.309	0.329	0.346	0.284	0.291	1.02	1.09	1.05	1.13	1.17	0.293	0.475	0.581	0.354	0.358	0.539	0.531	0.526	0.421	0.554
NCI-H322M	0.667	0.692	0.746	0.737	0.705	0.5	0.53	0.587	0.657	0.57	0.482	0.497	0.523	0.436	0.493	0.893	0.874	0.976	0.928	1.06
NCI-H358	0.237	0.214	0.247	0.238	0.206	0.507	0.417	0.446	0.492	0.438	0.104	0.101	0.115	0.11	0.106	0.569	0.566	0.507	0.459	0.793
NCI-H460	0.464	0.518	0.456	0.494	0.432	0.913	1.05	1	0.878	1.03	0.495	0.472	0.421	0.418	0.461	0.852	1.02	0.869	0.941	0.919
NCI-H520	0.477	0.504	0.488	0.499	0.514	0.826	0.822	0.903	0.79	0.921	0.453	0.486	0.409	0.431	0.427	0.746	0.724	0.782	0.781	0.798
NCI-H596	1.09	1.01	0.893	0.985	1.14	1.05	1.13	1.14	0.894	1	0.985	0.982	0.963	0.838	0.754	0.989	0.916	1.11	1.14	0.984
NCI-H647	0.402	0.438	0.444	0.303	0.387	1.11	1.33	1.21	1.06	0.755	0.297	0.317	0.452	0.279	0.315	1.03	1.14	1.24	1.01	1.1
NCI-H650	0.29	0.309	0.331	0.333	0.279	0.91	0.819	0.784	0.896	1.12	0.713	0.689	0.725	0.824	0.854	0.771	0.638	0.563	0.645	0.789
NCI-H661	0.573	0.591	0.652	0.571	0.595	0.562	0.512	0.51	0.437	0.483	0.347	0.355	0.36	0.361	0.38	0.915	0.863	0.928	0.942	0.891
NCI-H727	0.824	0.685	0.884	1.03	0.926	0.904	0.629	0.673	0.882	0.91	0.573	0.658	0.588	0.691	0.761	0.42	0.757	0.657	0.877	0.813
NCI-H838	0.458	0.452	0.529	0.495	0.46	0.907	1.11	1.05	0.919	0.97	0.236	0.263	0.282	0.295	0.252	0.788	0.817	0.818	0.816	0.785
NCI-H1355	0.363	0.351	0.371	0.336	0.371	0.977	0.945	0.984	1.02	1.13	0.567	0.566	0.618	0.54	0.596	1.06	1.02	1.06	1.09	1.06
NCI-H1437	0.509	0.615	0.592	0.573	0.549	0.813	0.802	0.843	0.821	0.788	0.418	0.392	0.435	0.392	0.419	0.867	0.947	0.781	0.929	0.868
NCI-H1650	0.448	0.362	0.489	0.44	0.442	0.656	0.698	0.792	0.743	0.875	0.394	0.349	0.424	0.325	0.361	0.945	1.02	1.06	1.14	1.02
NCI-H1651	0.578	0.62	0.577	0.652	0.59	0.914	1	0.913	0.777	0.929	0.61	0.65	0.691	0.682	0.733	0.927	0.882	0.824	0.829	0.858

Cell Line	relative viability (Dovitinib + Decitabine; first compound 0.02 µM)	relative viability (Dovitinib + Decitabine; first compound 0.06325 µM)	relative viability (Dovitinib + Decitabine; first compound 0.2 µM)	relative viability (Dovitinib + Decitabine; first compound 0.6325 µM)	relative viability (Dovitinib + Decitabine; first compound 2 µM)	relative viability (Dovitinib + Lapatinib; first compound 0.02 µM)	relative viability (Dovitinib + Lapatinib; first compound 0.06325 µM)	relative viability (Dovitinib + Lapatinib; first compound 0.2 µM)	relative viability (Dovitinib + Lapatinib; first compound 0.6325 µM)	relative viability (Dovitinib + Lapatinib; first compound 2 µM)	relative viability (Dovitinib + Tozasertib; first compound 0.02 µM)	relative viability (Dovitinib + Tozasertib; first compound 0.06325 µM)	relative viability (Dovitinib + Tozasertib; first compound 0.2 µM)	relative viability (Dovitinib + Tozasertib; first compound 0.6325 µM)	relative viability (Dovitinib + Tozasertib; first compound 2 µM)	relative viability (Dovitinib + Crizotinib; first compound 0.02 µM)	relative viability (Dovitinib + Crizotinib; first compound 0.06325 µM)	relative viability (Dovitinib + Crizotinib; first compound 0.2 µM)	relative viability (Dovitinib + Crizotinib; first compound 0.6325 µM)	relative viability (Dovitinib + Crizotinib; first compound 2 µM)
NCI-H1666	0.714	0.718	0.734	0.835	0.8	0.657	0.627	0.667	0.596	0.69	0.582	0.651	0.581	0.525	0.625	0.966	1.14	1.08	0.964	1.04
NCI-H1734	0.49	0.519	0.472	0.506	0.467	1.11	1.02	1.05	1.09	0.503	0.287	0.279	0.264	0.223	0.288	0.635	0.664	0.637	0.598	0.643
NCI-H1755	0.679	0.736	0.756	0.723	0.677	1.08	1.07	1.02	1.05	0.976	0.53	0.62	0.554	0.561	0.555	0.861	0.878	0.834	0.852	0.86
NCI-H1915	0.26	0.258	0.246	0.251	0.284	0.87	0.955	0.971	0.944	1.02	0.435	0.445	0.46	0.451	0.453	0.854	0.886	0.838	0.922	0.841
NCI-H1944	0.388	0.374	0.455	0.454	0.434	0.84	0.809	0.893	0.7	0.818	0.235	0.258	0.225	0.272	0.255	1.02	1.13	1.05	1.08	1.18
NCI-H1975	0.372	0.409	0.4	0.424	0.382	0.899	0.979	0.917	0.89	0.907	0.72	0.754	0.763	0.689	0.685	0.898	0.934	1.02	0.937	0.95
NCI-H1993	0.637	0.598	0.67	0.683	0.622	0.853	0.803	0.952	0.799	0.731	0.58	0.546	0.601	0.636	0.582	0.917	0.818	0.811	1.04	0.942
NCI-H2009	0.428	0.431	0.403	0.344	0.4	0.768	0.954	0.912	0.928	1.13	0.698	0.761	0.782	0.683	0.886	0.919	1.06	1.04	1.03	1.12
NCI-H2023	0.223	0.234	0.217	0.237	0.215	0.778	0.739	1.13	0.918	0.808	0.324	0.334	0.384	0.261	0.313	0.55	0.604	0.591	0.573	0.481
NCI-H2085	0.606	0.532	0.592	0.573	0.558	0.834	0.785	0.723	0.894	0.818	0.83	0.871	0.851	0.824	0.84	0.753	0.904	0.851	0.856	0.9
NCI-H2087	0.312	0.307	0.269	0.357	0.329	0.893	0.958	1.01	1.02	1.16	0.196	0.271	0.308	0.209	0.286	0.817	0.66	0.878	0.796	0.778
NCI-H2126	0.605	0.573	0.676	0.556	0.599	0.692	0.726	0.744	0.734	0.797	0.833	0.807	0.951	0.794	0.833	1.03	1.04	1.05	1.02	1.08
NCI-H2170	0.466	0.496	0.529	0.458	0.458	0.291	0.243	0.273	0.267	0.277	0.658	0.856	0.733	0.787	0.787	1.12	1.23	1.23	1.14	1.2
NCI-H2347	0.642	0.545	0.644	0.682	0.623	0.588	0.882	1	0.924	0.967	0.523	0.478	0.503	0.619	0.62	0.784	0.653	0.79	0.961	0.676
NCI-H2405	0.714	0.745	0.832	0.688	0.845	1.1	0.946	1.04	1.09	1.35	0.732	0.722	0.782	0.705	0.883	0.87	0.762	0.862	0.773	0.935
NCI-H3122	0.493	0.431	0.447	0.48	0.374	0.996	1.01	0.967	1.05	1.02	0.37	0.368	0.488	0.406	0.415	0.294	0.27	0.287	0.284	0.263
